Our source for the AC50 values is ChEMBL document CHEMBL5291721, “A preclinical secondary pharmacology resource illuminates target-adverse drug reaction associations of marketed drugs” (Nat Commun, 2023).

One assay concerns the target Vasopressin V2 receptor (Homo sapiens, UniProt P30518).
Assay [1] concerns the target Gamma-aminobutyric acid receptor subunit alpha-1 (Rattus norvegicus, UniProt P62813).
Assay [2] deals with 5-hydroxytryptamine receptor 2A (Homo sapiens, UniProt P28223). It counts as functional, cell-based.
Sequence of 5-hydroxytryptamine receptor 2A (P28223 whole entry): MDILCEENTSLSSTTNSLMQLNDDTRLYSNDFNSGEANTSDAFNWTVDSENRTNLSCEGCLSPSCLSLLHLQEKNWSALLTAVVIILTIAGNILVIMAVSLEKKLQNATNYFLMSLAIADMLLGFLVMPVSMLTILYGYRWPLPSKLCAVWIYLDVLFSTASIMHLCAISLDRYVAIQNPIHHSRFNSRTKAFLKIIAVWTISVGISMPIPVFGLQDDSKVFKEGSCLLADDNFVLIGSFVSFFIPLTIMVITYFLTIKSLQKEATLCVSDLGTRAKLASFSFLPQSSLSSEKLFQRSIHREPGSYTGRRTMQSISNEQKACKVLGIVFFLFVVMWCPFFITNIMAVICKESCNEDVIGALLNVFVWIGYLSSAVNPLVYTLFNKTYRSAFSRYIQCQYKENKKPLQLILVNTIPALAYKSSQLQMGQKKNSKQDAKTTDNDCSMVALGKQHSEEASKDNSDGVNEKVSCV
Assay [3] deals with T1, Gastrin/cholecystokinin type B receptor (Homo sapiens, UniProt P32239).
T1 sequence (P32239 whole entry): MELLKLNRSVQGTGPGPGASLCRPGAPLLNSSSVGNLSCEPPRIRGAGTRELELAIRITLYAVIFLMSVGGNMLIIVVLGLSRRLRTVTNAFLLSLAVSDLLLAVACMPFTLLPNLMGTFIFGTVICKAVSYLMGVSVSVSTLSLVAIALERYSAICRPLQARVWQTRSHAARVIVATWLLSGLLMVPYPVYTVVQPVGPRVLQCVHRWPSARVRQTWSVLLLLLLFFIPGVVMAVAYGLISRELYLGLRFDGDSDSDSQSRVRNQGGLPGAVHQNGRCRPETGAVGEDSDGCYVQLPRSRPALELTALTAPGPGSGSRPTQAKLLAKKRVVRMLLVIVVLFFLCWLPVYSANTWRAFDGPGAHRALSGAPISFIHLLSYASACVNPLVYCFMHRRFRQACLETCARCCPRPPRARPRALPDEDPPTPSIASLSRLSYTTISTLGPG

The target of a further assay is Cannabinoid receptor 1 (Homo sapiens, UniProt P21554). It counts as functional, cell-based.
Sequence of Cannabinoid receptor 1 (P21554 whole entry): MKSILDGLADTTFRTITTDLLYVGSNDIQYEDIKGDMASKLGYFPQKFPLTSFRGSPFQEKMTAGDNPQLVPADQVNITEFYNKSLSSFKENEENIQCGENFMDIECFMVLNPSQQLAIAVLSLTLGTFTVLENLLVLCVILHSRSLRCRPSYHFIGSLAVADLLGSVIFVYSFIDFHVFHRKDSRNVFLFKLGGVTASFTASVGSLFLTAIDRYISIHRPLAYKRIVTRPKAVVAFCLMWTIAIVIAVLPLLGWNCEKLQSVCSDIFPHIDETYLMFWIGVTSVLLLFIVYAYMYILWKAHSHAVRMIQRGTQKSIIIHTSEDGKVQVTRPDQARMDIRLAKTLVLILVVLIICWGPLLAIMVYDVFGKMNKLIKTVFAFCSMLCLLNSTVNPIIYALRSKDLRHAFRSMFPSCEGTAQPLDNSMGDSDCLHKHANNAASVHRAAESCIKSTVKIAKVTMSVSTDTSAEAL

Each structure is given as a SMILES string. Bounds are passed on as bounds.
Further: assay procedure not described here.

Sequence of Vasopressin V2 receptor (P30518 whole entry): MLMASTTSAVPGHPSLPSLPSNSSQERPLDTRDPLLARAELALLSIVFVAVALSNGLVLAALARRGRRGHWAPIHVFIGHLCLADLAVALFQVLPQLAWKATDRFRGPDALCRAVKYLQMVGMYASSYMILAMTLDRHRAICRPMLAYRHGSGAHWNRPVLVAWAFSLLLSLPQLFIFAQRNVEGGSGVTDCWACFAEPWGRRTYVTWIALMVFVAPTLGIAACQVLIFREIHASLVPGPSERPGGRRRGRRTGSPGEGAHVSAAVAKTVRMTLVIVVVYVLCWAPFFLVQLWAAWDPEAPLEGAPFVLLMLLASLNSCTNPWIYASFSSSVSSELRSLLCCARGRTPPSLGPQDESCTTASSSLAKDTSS
Sequence of Gamma-aminobutyric acid receptor subunit alpha-1 (P62813 whole entry): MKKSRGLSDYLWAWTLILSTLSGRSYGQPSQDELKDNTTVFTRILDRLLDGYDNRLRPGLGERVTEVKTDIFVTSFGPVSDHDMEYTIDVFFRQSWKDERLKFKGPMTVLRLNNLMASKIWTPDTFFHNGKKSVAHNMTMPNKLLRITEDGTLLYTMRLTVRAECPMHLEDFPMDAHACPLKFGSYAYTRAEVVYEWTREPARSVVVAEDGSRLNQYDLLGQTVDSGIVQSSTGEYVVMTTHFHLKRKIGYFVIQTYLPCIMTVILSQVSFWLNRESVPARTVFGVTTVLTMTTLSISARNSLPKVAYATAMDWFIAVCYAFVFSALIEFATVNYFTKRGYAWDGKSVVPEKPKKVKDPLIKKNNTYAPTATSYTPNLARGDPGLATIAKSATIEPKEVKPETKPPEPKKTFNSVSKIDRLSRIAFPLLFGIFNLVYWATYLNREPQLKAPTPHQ

Consider `C=CC1=C(C(=O)O)N2C(=O)[C@@H](NC(=O)/C(=N\O)c3csc(N)n3)[C@H]2SC1`, for which the concentration at half-maximal activity (AC50) on Vasopressin V2 receptor is greater than 30 µM; in assay [1], greater than 10 µM; in assay [2], greater than 30 µM; in assay [3], greater than 30 µM; at Cannabinoid receptor 1, greater than 30 µM.
As to `CN(C)CCc1c[nH]c2ccc(CS(=O)(=O)N3CCCC3)cc12` [ALMOTRIPTAN], the AC50 on Vasopressin V2 receptor was greater than 30 µM; in assay [1] it was greater than 30 µM; in assay [2] it was 13 µM; in assay [3], greater than 30 µM; at Cannabinoid receptor 1, greater than 30 µM.
As to `CC[N+](CC)(CCNC(=O)C(=O)NCC[N+](CC)(CC)Cc1ccccc1Cl)Cc1ccccc1Cl` [AMBENONIUM], the AC50 (at Vasopressin V2 receptor; in assay [1]; in assay [2]; in assay [3]; at Cannabinoid receptor 1) was greater than 30 µM in each case.
With `CN(C)CCOC(c1ccc(Cl)cc1)c1ccccn1` (stereo not drawn) [CARBINOXAMINE], the concentration at half-maximal activity (AC50) (at Vasopressin V2 receptor; in assay [2]; in assay [3]; on Cannabinoid receptor 1) was greater than 30 µM throughout.
For `CCN(CC)CCn1c(=O)c(Cc2ccc(OC)cc2)nc2ccccc21` [CAROVERINE], the AC50 (on Vasopressin V2 receptor; in assay [1]; in assay [2]; in assay [3]; at Cannabinoid receptor 1) was greater than 30 µM each time.
Take `CC(C)/N=c1\cc2n(-c3ccc(Cl)cc3)c3ccccc3nc-2cc1Nc1ccc(Cl)cc1` [CLOFAZIMINE]: the AC50 on Vasopressin V2 receptor is greater than 30 µM; in assay [1] it was 29 µM; in assay [2] it was greater than 30 µM; in assay [3], greater than 30 µM; on Cannabinoid receptor 1, greater than 30 µM.
Take `C[C@]12CCC(=O)C=C1CC[C@H]1[C@@H]3CC[C@](O)(C(=O)CO)[C@@]3(C)C[C@H](O)[C@@]12F` [FLUDROCORTISONE]: the AC50 at Vasopressin V2 receptor was greater than 30 µM; in assay [1] it was greater than 10 µM; in assay [2], greater than 30 µM; in assay [3], greater than 30 µM; at Cannabinoid receptor 1, greater than 30 µM.
With `CCOC(=O)Nc1ccc(NCc2ccc(F)cc2)nc1N` [FLUPIRTINE], the AC50 (at Vasopressin V2 receptor; in assay [1]; in assay [2]; in assay [3]; at Cannabinoid receptor 1) was greater than 30 µM throughout.
In the case of `OCCOCCN1CCN(C(c2ccccc2)c2ccc(Cl)cc2)CC1` (stereo not drawn) [HYDROXYZINE], the AC50 at Vasopressin V2 receptor was greater than 30 µM; in assay [1], greater than 10 µM; in assay [2], greater than 30 µM; in assay [3], greater than 30 µM; at Cannabinoid receptor 1, greater than 30 µM.
Take `N[C@@H](Cc1cc(I)c(Oc2cc(I)c(O)c(I)c2)c(I)c1)C(=O)O` [LEVOTHYROXINE]: the AC50 (on Vasopressin V2 receptor; in assay [2]; in assay [3]; on Cannabinoid receptor 1) was greater than 30 µM throughout.
In the case of `CC(=O)SCC(Cc1ccccc1)C(=O)NCC(=O)OCc1ccccc1` (stereo not drawn) [RACECADOTRIL], the AC50 (at Vasopressin V2 receptor; in assay [1]; in assay [2]; in assay [3]; at Cannabinoid receptor 1) was greater than 30 µM throughout.
